Data on seven compounds can be found in patent US4610816A (Schering Corporation, priority 1981, dated 1986).

One assay concerns the target T1, enkephalinase A (Rattus norvegicus, UniProt P07861).
T1 construct: from tissue; host or cells: Sprague-Dawley rat brain minus cerebellum; membrane pellet solubilised in 1% Triton X-100, DEAE Sephacel fraction eluting at 120-200 ml
T1 sequence (P07861 1-750): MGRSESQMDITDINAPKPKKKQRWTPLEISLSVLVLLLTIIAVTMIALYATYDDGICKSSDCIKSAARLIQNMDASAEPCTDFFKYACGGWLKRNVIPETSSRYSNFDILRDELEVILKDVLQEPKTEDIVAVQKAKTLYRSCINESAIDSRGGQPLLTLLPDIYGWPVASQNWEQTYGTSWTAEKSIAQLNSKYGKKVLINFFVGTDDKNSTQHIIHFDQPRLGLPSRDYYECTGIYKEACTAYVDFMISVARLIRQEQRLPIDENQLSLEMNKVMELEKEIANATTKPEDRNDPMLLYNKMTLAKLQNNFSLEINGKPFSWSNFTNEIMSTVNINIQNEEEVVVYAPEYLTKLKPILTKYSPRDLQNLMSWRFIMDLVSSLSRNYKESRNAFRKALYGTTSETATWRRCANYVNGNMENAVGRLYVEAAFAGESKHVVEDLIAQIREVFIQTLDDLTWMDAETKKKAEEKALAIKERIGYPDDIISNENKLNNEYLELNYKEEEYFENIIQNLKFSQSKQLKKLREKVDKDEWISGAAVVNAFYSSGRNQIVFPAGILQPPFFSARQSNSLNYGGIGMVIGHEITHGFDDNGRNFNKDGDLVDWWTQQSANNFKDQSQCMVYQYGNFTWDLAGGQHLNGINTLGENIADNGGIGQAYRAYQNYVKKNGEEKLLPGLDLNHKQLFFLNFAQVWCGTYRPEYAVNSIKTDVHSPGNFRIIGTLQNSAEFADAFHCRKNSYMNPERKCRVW
The assay is described as follows: Enkephalinase A inhibition, radiometric 3H-Met5-ENK degradation assay with TLC separation. Format: biochemical, Sprague-Dawley rats. The following applies: rat brain membrane enzyme, 40 nM 3H-Met5-ENK, 90 min at 37° C.; N.A. = No activity at <10^5 nM.

Another assay deals with Male CFl mice. In words: Potentiation of the analgesic effects of (DAla2-Met5)-enkephalinamide (DAEAM), tail-flick test. Format: in vivo. The following applies: mouse tail-flick, DAEAM icv, latency 30 min later, dose at which half the test animals displayed analgesia. The source says:
Male CFl mice (19-23 g) from Charles River Breeding Labs, Mass., are used (N=10/dose or dose combination). Tail-flick testing is done similar to that of Dewey and Harris, Methods in Narcotic Research, Eds., S. Ehrenpreis and A. Neidle, pp. 101-109, Marcel Dekker, Inc., New York, 1975 using a radiant heat noxious stimulus. Following determination of control latencies (typically 2-3 sec), the mice are first injected (sc or po) with either vehicle or drug and after an appropriate interval injected intracerebroventricularly (icv) with either vehicle (10 μl of saline) or DAEAM according to Haley and McCormick, Br., J. Pharmacol., 12,12 (1957). Tail-flick latencies are re-determined 30 min later, as this has previously been determined to be the time of peak analgesia for DAEAM, a cut-off of 10 sec is employed.

Method for enkephalinase A: The following test procedure was utilized to assay the enkephalinase A inhibition of the compounds having structural formula I.
Enzyme activity was separated by taking the brain tissue (minus cerebellum) from Sprague-Dawley rats and homogenizing it in 30 volumes of 50 mM Tris buffer, pH 7.4, using a Brinkmann Polytron. The resulting homogenate is centrifuged at 50,000 xg for 15 min. The pellet, constituting the membrane bound enzyme material, is washed by resuspending it in Tris and re-centrifuging it 4 times.
Following washing, solubilization of the membrane pellet is achieved by incubating it for 45 min at 37° C. in the presence of 15 volumes (based on initial brain weight) of 50 mM Tris-1% Triton X-100 buffer, pH 7.4. […] Material is eluted from the column using a 1 liter linear NaCl gradient running from 0.0 to 0.4 M. Effluent is collected in 7 ml fractions, each of which is assayed for enkephalin degrading activity. Under these conditions Enk'ase A activity is found to elute between 120 and 200 ml. followed by AP activity (260 to 400 ml) and finally by Enk'ase B activity between 420 and 450 ml.
Enkephalin degrading activity is monitored using a radiometric assay. The substrate is ^3 H-Met^5 -ENK (50.1 Ci/mmol, New England Nuclear) diluted in 0.05 M Tris buffer, pH 7.4, such that the final reaction mixture concentration is 40 nM. Total reaction mixture volume including enzyme and substrate is 250 μl. Incubation is carried out for 90 min at 37° C. To stop the reaction, tubes are transferred to a boiling water bath for 15 min.
Assay products are separated from one another using thin layer chromatography. […] Total running time is approximately 17 hours. TLC tanks are gassed with nitrogen prior to starting the run. Following the run, markers are visualized with ninhydrin spray. These spots, along with remaining plate regions, are cut from the plate and the radioactivity corresponding to each monitored using liquid scintillation counting. IC50 's are determined using linear regression techniques.

Compound `O=C(O)CCNC(=O)[C@H](Cc1ccccc1)N[C@@H](Cc1ccc(-c2ccccc2)cc1)C(=O)O` [AC, N-[N-[L-1-carboxy-2-(4-phenyl)phenylethyl]-L-phenylalanyl]-β-alanine] yielded an IC50 against enkephalinase A of 2.5 nM. That is a single-digit nanomolar value.
The same measure, in the same setting: the value for `CC(C)C[C@H](N[C@H](Cc1ccccc1)C(=O)O)C(=O)N[C@@H](Cc1ccccc1)C(=O)O` [AG, N-[N-[(D-1-carboxy-2-phenylethyl)]-L-leucyl]-L-phenylalanine] was 12 nM; that for `CC(C)(C)OC(=O)N[C@@H](CNC(=O)[C@H](Cc1ccccc1)N[C@@H](Cc1ccccc1)C(=O)O)C(=O)O` [AL, N-[N-(L-1-carboxy-2-phenylethyl)-L-phenylalanyl]-S-2-[N[(1,1-dimethylethoxy)carbonyl]amino]-β-alanine] was 4.5 nM.
At enkephalinase A, `O=C(O)CCNC(=O)[C@H](Cc1ccccc1)N[C@@H](Cc1ccccc1)C(=O)O` [K, N-[N-[(L-1-carboxy-2-phenylethyl)]-L-phenylalanyl]-β-alanine] came in with an IC50 of 15 nM. Besides, in the assay on Male CFl mice (sc), the “DAEAM Potentiation ED50 (route)” value is recorded as 17 mg/k.
As for `CC(C)(C)C(=O)OCOC(=O)CCNC(=O)[C@H](Cc1ccccc1)N[C@@H](Cc1ccccc1)C(=O)OCc1ccccc1` [L], the “DAEAM Potentiation ED50 (route)” value in the assay on Male CFl mice (po) came to 155 mg/k.
Still for that read-out and setting: under `CC(C)(C)C(=O)OCOC(=O)CCNC(=O)[C@H](Cc1ccccc1)N[C@@H](Cc1ccccc1)C(=O)OCOC(=O)C(C)(C)C` [M] stands 37 mg/k.
Regarding `O=C(CCNC(=O)[C@H](Cc1ccccc1)N[C@@H](Cc1ccccc1)C(=O)O)OCCOc1ccccc1` [P, N-[N-[(L-1-carboxy-2-phenylethyl)]-L-phenylalanyl]-β-alanine, 2-phenoxyethyl ester], the IC50 at enkephalinase A was 230 nM. Also, the “DAEAM Potentiation ED50 (route)” value in the assay on Male CFl mice (po) was 30-60 mg/k.
